{
  "source": "PubChem BioAssay (NCI)",
  "assay_in_all_cases": "DTP human tumour cell line panel, 384-well format",
  "key": {"UO-31 renal": {"tested_on": "UO-31 renal"}, "SF-295 CNS": {"tested_on": "SF-295 CNS"}, "EKVX NSCLC": {"tested_on": "EKVX NSCLC"}, "HCC-2998 colon": {"tested_on": "HCC-2998 colon"}, "SN12C renal": {"tested_on": "SN12C renal"}, "K-562 leukemia": {"tested_on": "K-562 leukemia"}, "HL-60(TB) leukemia": {"tested_on": "HL-60(TB) leukemia"}, "PC-3 prostate": {"tested_on": "PC-3 prostate"}, "NCI/ADR-RES ovarian": {"tested_on": "NCI/ADR-RES ovarian"}, "A498 renal": {"tested_on": "A498 renal"}, "UACC-62 melanoma": {"tested_on": "UACC-62 melanoma"}, "MALME-3M melanoma": {"tested_on": "MALME-3M melanoma"}, "DU-145 prostate": {"tested_on": "DU-145 prostate"}},
  "note": "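Abbreviation: GI50, concentration required for 50% inhibition of growth. The concentration for full growth arrest is given as TGI.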",
  "data": [
    {"smiles": "Cc1ccc2c(N)c(C(=O)N[C@H]3CCc4cc(N5CC6CCC(C5)N6)ccc4C3)sc2n1", "values": [
      {"measurement": "GI50", "setting": "UO-31 renal", "value": 349, "unit": "nM"},
      {"measurement": "TGI", "setting": "UO-31 renal", "value": 1270, "unit": "nM"},
      {"measurement": "GI50", "setting": "SF-295 CNS", "value": 335, "unit": "nM"},
      {"measurement": "TGI", "setting": "SF-295 CNS", "value": 919, "unit": "nM"},
      {"measurement": "GI50", "setting": "EKVX NSCLC", "value": 251, "unit": "nM"},
      {"measurement": "TGI", "setting": "EKVX NSCLC", "value": 836, "unit": "nM"},
      {"measurement": "GI50", "setting": "HCC-2998 colon", "value": 246, "unit": "nM"},
      {"measurement": "TGI", "setting": "HCC-2998 colon", "value": 751, "unit": "nM"},
      {"measurement": "GI50", "setting": "SN12C renal", "value": 124, "unit": "nM"},
      {"measurement": "TGI", "setting": "SN12C renal", "value": 647, "unit": "nM"},
      {"measurement": "GI50", "setting": "K-562 leukemia", "value": 74.5, "unit": "nM"},
      {"measurement": "TGI", "setting": "K-562 leukemia", "value": 1080, "unit": "nM"},
      {"measurement": "GI50", "setting": "HL-60(TB) leukemia", "value": 32, "unit": "nM"},
      {"measurement": "TGI", "setting": "HL-60(TB) leukemia", "value": 108, "unit": "nM"},
      {"measurement": "GI50", "setting": "PC-3 prostate", "value": 222, "unit": "nM"},
      {"measurement": "TGI", "setting": "PC-3 prostate", "value": 989, "unit": "nM"},
      {"measurement": "GI50", "setting": "NCI/ADR-RES ovarian", "value": 326, "unit": "nM"},
      {"measurement": "TGI", "setting": "NCI/ADR-RES ovarian", "value": 1190, "unit": "nM"},
      {"measurement": "GI50", "setting": "A498 renal", "value": 164, "unit": "nM"},
      {"measurement": "TGI", "setting": "A498 renal", "value": 892, "unit": "nM"},
      {"measurement": "GI50", "setting": "UACC-62 melanoma", "value": 241, "unit": "nM"},
      {"measurement": "TGI", "setting": "UACC-62 melanoma", "value": 811, "unit": "nM"},
      {"measurement": "GI50", "setting": "MALME-3M melanoma", "value": 164, "unit": "nM"},
      {"measurement": "TGI", "setting": "MALME-3M melanoma", "value": 443, "unit": "nM"},
      {"measurement": "GI50", "setting": "DU-145 prostate", "value": 104, "unit": "nM"},
      {"measurement": "TGI", "setting": "DU-145 prostate", "value": 605, "unit": "nM"}
    ]}
  ]
}
